How the values were obtained:
Type in all cases: in vivo
AMAPA [1] = assay: Pre-emergence biological efficacy; conditions: 312 h, evaluated after 13 days, read-out: damage to plant (100=total damage to plant; 0=no damage to plant), AMAPA
Method: (§1) Pre-Emergence Biological Efficacy
(§2) Seeds of weeds and/or crops were sown in standard soil in pots. After cultivation for one day under controlled conditions in a glasshouse (at 24/16° C., day/night; 14 hours light; 65% humidity), the plants were sprayed with an aqueous spray solution derived from the formulation of the technical active ingredient in acetone/water (50:50) solution containing 0.5% Tween 20 (polyoxyethylene sorbitan monolaurate, CAS RN 9005-64-5) to give the desired final dose of test compound.
(§3) The test plants were then grown under controlled conditions in the glasshouse (at 24/16° C., day/night; 14 hours light; 65% humidity) and watered twice daily. After 13 days the test was evaluated (100=total damage to plant; 0=no damage to plant).

ECHCG [2] = assay: Pre-emergence biological efficacy; conditions: Echinochloa crus-galli, 312 h, evaluated after 13 days, read-out: damage to plant (100=total damage to plant; 0=no damage to plant), ECHCG
Method: as §1, §2, §3

EPHHL [3] = assay: Pre-emergence biological efficacy; conditions: 312 h, evaluated after 13 days, read-out: damage to plant (100=total damage to plant; 0=no damage to plant), EPHHL
Method: as §1, §2, §3

IPOHE [4] = assay: Pre-emergence biological efficacy; conditions: Ipomoea hederacea, 312 h, evaluated after 13 days, read-out: damage to plant (100=total damage to plant; 0=no damage to plant), IPOHE
Method: as §1, §2, §3

LOLPE [5] = assay: Pre-emergence biological efficacy; conditions: 312 h, evaluated after 13 days, read-out: damage to plant (100=total damage to plant; 0=no damage to plant), LOLPE
Method: as §1, §2, §3

SETFA [6] = assay: Pre-emergence biological efficacy; conditions: Setaria faberi, 312 h, evaluated after 13 days, read-out: damage to plant (100=total damage to plant; 0=no damage to plant), SETFA
Method: as §1, §2, §3

AMAPA [7] = assay: Post-emergence biological efficacy; conditions: 312 h, evaluated after 13 days, read-out: damage to plant (100=total damage to plant; 0=no damage to plant), AMAPA
Method: (§4) Post-Emergence Biological Efficacy
as §2, with “8 days” for “one day”
(§5) The test plants were then grown on under controlled conditions in a glasshouse (at 24/16° C., day/night; 14 hours light; 65% humidity) and watered twice daily. After 13 days the test was evaluated (100=total damage to plant; 0=no damage to plant).

CHEAL = assay: Post-emergence biological efficacy; conditions: Chenopodium album, 312 h, evaluated after 13 days, read-out: damage to plant (100=total damage to plant; 0=no damage to plant), CHEAL
Method: as §4
as §2, with “8 days” for “one day”
as §5

DIGSA = assay: Post-emergence biological efficacy; conditions: Digitaria sanguinalis, 312 h, evaluated after 13 days, read-out: damage to plant (100=total damage to plant; 0=no damage to plant), DIGSA
Method: as §4
as §2, with “8 days” for “one day”
as §5

ECHCG [8] = assay: Post-emergence biological efficacy; conditions: Echinochloa crus-galli, 312 h, evaluated after 13 days, read-out: damage to plant (100=total damage to plant; 0=no damage to plant), ECHCG
Method: as §4
as §2, with “8 days” for “one day”
as §5

ELEIN = assay: Post-emergence biological efficacy; conditions: 312 h, evaluated after 13 days, read-out: damage to plant (100=total damage to plant; 0=no damage to plant), ELEIN
Method: as §4
as §2, with “8 days” for “one day”
as §5

EPHHL [9] = assay: Post-emergence biological efficacy; conditions: 312 h, evaluated after 13 days, read-out: damage to plant (100=total damage to plant; 0=no damage to plant), EPHHL
Method: as §4
as §2, with “8 days” for “one day”
as §5

IPOHE [10] = assay: Post-emergence biological efficacy; conditions: Ipomoea hederacea, 312 h, evaluated after 13 days, read-out: damage to plant (100=total damage to plant; 0=no damage to plant), IPOHE
Method: as §4
as §2, with “8 days” for “one day”
as §5

LOLPE [11] = assay: Post-emergence biological efficacy; conditions: evaluated after 13 days; for pest or weed control at 250 g/ha: 312 h, read-out: damage to plant (100=total damage to plant; 0=no damage to plant), LOLPE
Method: as §4
as §2, with “8 days” for “one day”
as §5

SETFA [12] = assay: Post-emergence biological efficacy; conditions: Setaria faberi, 312 h, evaluated after 13 days, read-out: damage to plant (100=total damage to plant; 0=no damage to plant), SETFA
Method: as §4
as §2, with “8 days” for “one day”
as §5

CC(=O)C1(C)CC(c2cc(-n3c(=O)n(C)c(=S)n(C)c3=O)c(F)cc2Cl)=NO1 (stereo not drawn) [Compound 290, 3-[5-(5-Acetyl-5-methyl-4H-isoxazol-3-yl)-4-chloro-2-fluoro-phenyl]-1,5-dimethyl-6-thioxo-1,3,5-triazinane-2,4-dione]
100%: pest or weed control at 250 g/ha (AMAPA [1]) | pest or weed control at 250 g/ha (EPHHL [3]) | pest or weed control at 250 g/ha (IPOHE [4]) | pest or weed control at 250 g/ha (SETFA [6]) | pest or weed control at 250 g/ha (AMAPA [7]) | pest or weed control at 250 g/ha (CHEAL) | pest or weed control at 250 g/ha (DIGSA) | pest or weed control at 250 g/ha (ELEIN) | pest or weed control at 250 g/ha (EPHHL [9]) | pest or weed control at 250 g/ha (IPOHE [10])
90%: pest or weed control at 250 g/ha (ECHCG [2]) | pest or weed control at 250 g/ha (LOLPE [5]) | pest or weed control at 250 g/ha (ECHCG [8]) | pest or weed control at 250 g/ha (LOLPE [11]) | pest or weed control at 250 g/ha (SETFA [12])

Cn1c(=S)n(C)c(=O)n(-c2cc(C3=NOC(C)(C(=O)NS(C)(=O)=O)C3)c(Cl)cc2F)c1=O (stereo not drawn) [Compound 284, 3-[2-chloro-5-(3,5-dimethyl-2,6-dioxo-4-thioxo-1,3,5-triazinan-1-yl)-4-fluoro-phenyl]-5-methyl-N-methylsulfonyl-4H-isoxazole-5-carboxamide]
90%: pest or weed control at 250 g/ha (EPHHL [9])
40%: pest or weed control at 250 g/ha (LOLPE [5])
100%: pest or weed control at 250 g/ha (AMAPA [1]) | pest or weed control at 250 g/ha (EPHHL [3]) | pest or weed control at 250 g/ha (IPOHE [4]) | pest or weed control at 250 g/ha (AMAPA [7]) | pest or weed control at 250 g/ha (CHEAL) | pest or weed control at 250 g/ha (DIGSA) | pest or weed control at 250 g/ha (ECHCG [8]) | pest or weed control at 250 g/ha (ELEIN) | pest or weed control at 250 g/ha (IPOHE [10]) | pest or weed control at 250 g/ha (SETFA [12])
70%: pest or weed control at 250 g/ha (SETFA [6])
80%: pest or weed control at 250 g/ha (LOLPE [11])
30%: pest or weed control at 250 g/ha (ECHCG [2])

CCOC(=O)C1(C)CC(c2cc(-n3c(=O)n(C)c(=S)n(C)c3=O)c(F)cc2Cl)=NO1 (single isomer, unassigned) [Compound 47 (enantiomer B)]
40%: pest or weed control at 250 g/ha (LOLPE [5])
100%: pest or weed control at 250 g/ha (AMAPA [1]) | pest or weed control at 250 g/ha (EPHHL [3]) | pest or weed control at 250 g/ha (SETFA [6]) | pest or weed control at 250 g/ha (AMAPA [7]) | pest or weed control at 250 g/ha (CHEAL) | pest or weed control at 250 g/ha (DIGSA) | pest or weed control at 250 g/ha (ECHCG [8]) | pest or weed control at 250 g/ha (ELEIN) | pest or weed control at 250 g/ha (EPHHL [9]) | pest or weed control at 250 g/ha (IPOHE [10]) | pest or weed control at 250 g/ha (SETFA [12])
50%: pest or weed control at 250 g/ha (ECHCG [2])
100: damage to plant (100=total damage to plant; 0=no damage to plant), LOLPE (LOLPE [11]; 250 g/ha)
80%: pest or weed control at 250 g/ha (IPOHE [4])
